Among the data in patent publication US10022387B2, “Aza-heteroaryl compounds as PI3K-gamma inhibitors” (Incyte Corporation, priority 2015, dated 2018) are IC50 values, retold here.

Where only a bound is given, the exact number is not on record here.

In this assay the test system is Phosphorylated Ribosomal Protein S6 (RPS6) in THP-1 cells. Put plainly: THP-1 RPS6 ELISA Assay. The format is cell-based. The conditions noted are these: Homo sapiens, 2 hours with compound, 10 nM MCP-1 for 15 minutes, read-out: THP p-RPS6 ELISA IC50. How it is done:
To measure the Phosphorylated Ribosomal Protein S6 (RPS6) in cell lysates, THP-1 cells (Human Acute Monocytic Leukemia) are purchased from ATCC (Manassas, Va.) and maintained in RPMI with 10% FBS (Gibco/Life Technologies, Carlsbad, Calif.). For the assay, THP-1 cells are serum starved overnight in RPMI, then plated in RPMI (2×10^5 cells/well in 90 μL) into 96-well flat-bottom tissue culture treated plates (Corning, Corning, N.Y.), in the presence or absence of a concentration range of test compounds. Covered plates are incubated for 2 hours at 37° C., 5% CO2 then treated with or without 10 nM MCP-1 (MYBioSource, San Diego, Calif.) for 15 minutes at 37° C., 5% CO2. Plates are centrifuged at 1600 RPM and supernatants are removed. Cells are lysed in Lysis Buffer (Cell Signaling, Danvers, Mass.) with Protease Inhibitor (Calbiochem/EMD, Germany), PMSF (Sigma, St. Louis, Mo.), HALTS (Thermo Fisher, Rockford, Ill.) for 30 min on wet ice. Cell lysates are frozen at −80° C. before testing. The lysates are tested in the Human/Mouse/Rat Phospho-RPS6 ELISA (R&D Systems, Inc. Minn, Minn.). The plate is measured using a microplate reader (SpectraMax M5—Molecular Devices, LLC Sunnyvale, Calif.) set to 450 nm with a wavelength correction of 540. IC50 determination is performed by fitting the curve of inhibitor percent inhibition versus the log of the inhibitor concentration using the GraphPad Prism 5.0 software.
As for `O=S(=O)(Nc1cncc(-c2ccc3nc(-c4ncc[nH]4)oc3c2)c1)c1ccc(F)cc1` [Example 39, N-(5-(2-(1H-Imidazol-2-yl)benzo[d]oxazol-6-yl)pyridin-3-yl)-4-fluorobenzenesulfonamide], the IC50 (as a rule, the concentration needed to halve the response being measured) is less than 1 µM. For `O=S(=O)(c1cncc(-c2ccc3nc(-c4nc5ccccc5[nH]4)oc3c2)c1)N1CCC(O)C1` (centres unmarked) [Example 58, 1-({5-[2-(1H-Benzimidazol-2-yl)-1,3-benzoxazol-6-yl]pyridin-3-yl}sulfonyl)pyrrolidin-3-ol bis(trifluoroacetate)], the IC50 is not below 5 µM. In the case of `CCS(=O)(=O)Nc1cc(-c2ccc3nc(-c4nc5ccccc5[nH]4)oc3c2)cnc1F` [Example 27, N-(5-(2-(1H-Benzo[d]imidazol-2-yl)benzo[d]oxazol-6-yl)-2-fluoropyridin-3-yl)ethanesulfonamide], the IC50 is less than 1 µM. On to `O=S(=O)(Nc1cc(-c2ccc3nc(-c4nc5ccccc5[nH]4)oc3c2)cnc1F)c1ccc(F)cc1` [Example 30, N-(5-(2-(1H-Benzo[d]imidazol-2-yl)benzo[d]oxazol-6-yl)-2-fluoropyridin-3-yl)-4-fluorobenzene-sulfonamide], for which the IC50 is less than 1 µM. To `CN(C)S(=O)(=O)Nc1cncc(-c2ccc3nc(-c4ncc[nH]4)oc3c2)c1` [Example 41, N′-{5-[2-(1H-Imidazol-2-yl)-1,3-benzoxazol-6-yl]pyridin-3-yl}-N,N-dimethylsulfamide] belongs less than 1 µM. On to `COc1cncc(-c2ccc3nc(-c4cnc(C5CC5)[nH]4)oc3c2)c1` [Example 42, 2-(2-Cyclopropyl-1H-imidazol-5-yl)-6-(5-methoxypyridin-3-yl)benzo[d]oxazole], for which the IC50 was not below 5 µM. `c1ccc(Cn2cc(-c3ccc4nc(-c5nc6ccccc6[nH]5)oc4c3)cn2)cc1` [Example 48, 2-(1H-Benzimidazol-2-yl)-6-(1-benzyl-1H-pyrazol-4-yl)-1,3-benzoxazole]: the concentration for half-maximal inhibition (IC50) is not below 5 µM. On to `CCS(=O)(=O)Nc1cc(-c2ccc3nc(-c4nc5ccccc5[nH]4)oc3c2)cnc1C` [Example 25, N-(5-(2-(1H-Benzo[d]imidazol-2-yl)benzo[d]oxazol-6-yl)-2-methylpyridin-3-yl)ethanesulfonamide], for which the 50% inhibitory concentration (IC50) is less than 5 µM.

Regarding `Nc1ncc(-c2ccc3nc(-c4nc5ccccc5[nH]4)oc3c2)cc1C(F)(F)F` [Example 56, 5-[2-(1H-Benzimidazol-2-yl)-1,3-benzoxazol-6-yl]-3-(trifluoromethyl)pyridin-2-amine bis(trifluoroacetate)], the IC50 is not below 5 µM. Turning to `CCS(=O)(=O)Nc1cc(-c2ccc3nc(-c4nc5ccccc5[nH]4)oc3c2)cc(F)c1OC` [Example 80, N-(5-(2-(1H-Benzo[d]imidazol-2-yl)benzo[d]oxazol-6-yl)-3-fluoro-2-methoxyphenyl)ethanesulfonamide bis(trifluoroacetate)], the IC50 is not below 5 µM. In the case of `CCS(=O)(=O)Nc1cncc(-c2ccc3nc(-c4ncc[nH]4)oc3c2)c1` [Example 40, N-(5-(2-(1H-Imidazol-2-yl)benzo[d]oxazol-6-yl)pyridin-3-yl)ethanesulfonamide], the IC50 was less than 5 µM.

Turning to `c1ccc2[nH]c(-c3nc4ccc(-c5ccc6[nH]ncc6c5)cc4o3)nc2c1` [Example 49, 2-(1H-Benzimidazol-2-yl)-6-(1H-indazol-5-yl)-1,3-benzoxazole], the IC50 is not below 5 µM.

For `CCS(=O)(=O)Nc1cc(-c2ccc3nc(-c4nc5ccccc5[nH]4)oc3c2)cnc1OC` [Example 79, N-(5-(2-(1H-Benzo[d]imidazol-2-yl)benzo[d]oxazol-6-yl)-2-methoxypyridin-3-yl)ethanesulfonamide bis(trifluoroacetate)], the IC50 was less than 1 µM. To `Cc1ncc(-c2ccc3nc(-c4nc5ccccc5[nH]4)oc3c2)cc1NS(=O)(=O)c1ccc(F)cc1` [Example 28, N-(5-(2-(1H-Benzo[d]imdiazol-2-yl)benzo[d]oxazol-6-yl)-2-methylpyridin-3-yl)-4-fluorobenzene-sulfonamide] belongs less than 1 µM.
